In patent publication US6410592B1, “Aminomethylcarboxylic acid derivatives” (Akzo Nobel N.V., priority 1998, dated 2002):
Counter-ions that a name gives are not always drawn.

Biological target: T1, human GlyT-1b transporter (Homo sapiens, UniProt P48067)
T1 construct: expressed in transfected cells; host or cells: CHO cells, stably transfected, pcDNA3 expression construct
T1 sequence (P48067 1-652 isoform P48067-3): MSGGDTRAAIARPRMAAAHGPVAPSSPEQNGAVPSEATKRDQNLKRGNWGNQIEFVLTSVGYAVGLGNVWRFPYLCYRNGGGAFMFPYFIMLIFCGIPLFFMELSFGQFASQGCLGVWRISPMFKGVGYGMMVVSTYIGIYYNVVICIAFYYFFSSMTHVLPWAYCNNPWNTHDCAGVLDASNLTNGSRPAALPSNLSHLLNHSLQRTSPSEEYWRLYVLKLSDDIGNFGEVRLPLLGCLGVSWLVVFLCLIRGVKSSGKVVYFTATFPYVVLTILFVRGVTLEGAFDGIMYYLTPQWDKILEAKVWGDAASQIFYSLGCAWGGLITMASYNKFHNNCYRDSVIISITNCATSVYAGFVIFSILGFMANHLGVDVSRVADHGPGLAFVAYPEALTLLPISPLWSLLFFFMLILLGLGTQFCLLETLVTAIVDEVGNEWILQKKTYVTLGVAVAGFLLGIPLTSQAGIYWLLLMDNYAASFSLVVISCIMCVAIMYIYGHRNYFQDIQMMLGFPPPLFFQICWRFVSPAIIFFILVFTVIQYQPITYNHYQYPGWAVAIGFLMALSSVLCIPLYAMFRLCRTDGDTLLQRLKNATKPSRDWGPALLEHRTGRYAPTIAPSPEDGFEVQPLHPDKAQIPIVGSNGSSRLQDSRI
Assay: glycine uptake in CHO cells heterologously expressing the human GlyT-1b transporter
Type: cell-based
Conditions: [3H]glycine uptake, CHO cells stably expressing hGlyT-1b, 5 min preincubation, 10 min uptake, 37° C.
Procedure: Method for determination of glycine uptake in CHO cells heterologously expressing the human GlyT-1b transporter.
cDNA was generated by PCR according to the method described by Kim, K.-M. et al. Mol. Pharmacol. 1994, 45, 608-617. Sequence was verified by dideoxy sequencing using the ALF DNA sequencer™ (Pharmacia) and cloned into the expression construct pcDNA3 (Invitrogen).
Transfection of hGlyT-1b into CHO cells was performed using a standard calcium phosphate technique as described by Sambrook, J. et al. (1989) in Molecular Cloning: A Laboratory Manual, Cold Spring Harbor Laboratory, Cold Spring Harbor, N.Y.
Stably transfected cells were selected for 1 week in growth medium containing 1 mg.cm^−3 Geneticin. Individual clones were picked for further analysis and positives passaged routinely as described below.
Cells stably expressing the hGlyT-1b gene were cultured at 37° C. in a 5% CO2 atmosphere in DMEM—NUT.MIX. F12 with Glutamax-1 (Gibco) containing Geneticin (0.5 mg.cm^−3, Gibco) and supplemented with 10% Fetalclone II (Hyclone). Maintenance culture was carried out in standard 80 cm^2 ventilated flasks (2 m^−6 filter, Nunc) and cells were subcultured by trypsinisation (Sigma) when confluent.
Cells for uptake studies were plated in 96 well plates (17,000 cells per well) in the absence of Geneticin and cultured for 48 h before use. To measure glycine transport, cells were washed twice with Hanks' balanced salt solution (HBSS) pre-warmed to 37° C. and excess fluid removed before addition of test compounds dissolved in 0.200 cm^3 HBSS. Plates were incubated at 37° C. for 5 minutes before addition of [^3H]glycine (0.050 cm^3, 150 M^−6, 248 Bq.nmol^−1, NEN) and incubation continued for a further 10 minutes. Uptake was terminated by washing cells with ice-cold HBSS before removal of excess fluid and addition of 0.200 cm^3 scintillation cocktail to each well. Plates were sealed with adhesive film, shaken to ensure samples were homogenous before scintillation counting in a plate counter.
Data were analysed using standard curve fitting procedures to produce a pIC50 value for active compounds (where pIC50 is the negative logarithm of the concentration of test compound causing 50% inhibition of uptake).

SMILES | pIC50, Inhibition of glycine transport by hGlyT-1
COc1ccc2c(c1)CC[C@H](CN(C)CC(=O)[O-])[C@@H]2c1ccccc1.[Li+] (relative stereo) [Example (−)-4, (−)-Lithium cis-N-methyl-N-(6-methoxy-1-phenyl-1,2,3,4-tetrahydronaphthalen-2-ylmethyl) aminomethylcarboxylate] | 6.8

Same assay, conditions: [3H]glycine uptake, CHO cells stably expressing hGlyT-1b, 5 min preincubation, 10 min uptake, 37° C.; read-out: pIC50, Inhibition of glycine transport by hGlyT-1 (converted)

SMILES | IC50 [nM]
COc1ccc2c(c1)CCC(CN(C)CC(=O)O)C2c1ccccc1 (racemic) [(+/−)-4, Lithium cis-N-methyl-N-(6-methoxy-1-phenyl-1,2,3,4-tetrahydronaphthalen-2-ylmethyl) aminomethylcarboxylate] | 501
CN(CC(=O)O)CC1CCc2cc(C(F)(F)F)ccc2C1c1ccc(F)cc1 (racemic) [(+/−)-8, Lithium cis-N-methyl-N-[1-(4-fluorophenyl)-6-trifluoromethyl-1,2,3,4-tetrahydronaphthalen-2-ylmethyl] aminomethylcarboxylate] | 126
CN(CC(=O)O)CC1CCc2cc(Oc3ccccc3)ccc2C1c1ccccc1 (racemic) [(+/−)-17, Lithium cis-N-methyl-N-(6-phenoxy-1-phenyl-1,2,3,4-tetrahydronaphthalen-2-ylmethyl) aminomethylcarboxylate] | 158
Cc1ccc2c(c1)CCC(CN(C)CC(=O)O)C2c1ccccc1 (racemic) [(+/−)-23, Lithium cis-N-methyl-N-(6-methyl-1-phenyl-1,2,3,4-tetrahydronaphthalen-2-ylmethyl) aminomethylcarboxylate] | 251
CN(CC(=O)O)C[C@H]1CCc2cc(OCC(C)(C)C)ccc2[C@H]1c1ccccc1.Cl (racemic) [(+/−)-34, cis-N-Methyl-N-[6-(2,2-dimethylpropyloxy)-1-phenyl-1,2,3,4-tetrahydronaphthalen-2-ylmethyl] aminomethylcarboxylic acid hydrochloride] | 251
CN(CC(=O)O)CC1CCc2cc(C(F)(F)F)ccc2C1c1ccc(F)cc1 (single isomer, unassigned; (-)) [Example (−)-8, (−)-Lithium N-methyl-N-[1-(4-fluorophenyl)-6-trifluoromethyl-1,2,3,4-tetrahydronaphthalen-2-ylmethyl] aminomethylcarboxylate] | 50.1
CN(CC(=O)O)CC1CCc2cc(Oc3ccccc3)ccc2C1c1ccccc1 (single isomer, unassigned; (-)) [Example (−)-17, (−)-Sodium cis-N-methyl-N-(6-phenoxy-1-phenyl-1,2,3,4-tetrahydronaphthalen-2-ylmethyl) aminomethylcarboxylate] | 100
Cc1ccc2c(c1)CCC(CN(C)CC(=O)O)C2c1ccccc1 (single isomer, unassigned; (-)) [Example (−)-23, (−)-Sodium cis-N-methyl-N-(6-methyl-1-phenyl-1,2,3,4-tetrahydronaphthalen-2-ylmethyl) aminomethylcarboxylate] | 126
CN(CC(=O)O)CC1CCc2cc(OCC(C)(C)C)ccc2C1c1ccccc1 (single isomer, unassigned; (-)) [Example (−)-34, (−)-Lithium cis-N-methyl-N-[1-phenyl-6-(2,2-dimethylpropyloxy)-1,2,3,4-tetrahydronaphthalen-2-ylmethyl] aminomethylcarboxylate] | 251

System: not given
Assay: not given
Conditions: not given

SMILES | melting point
CN(CC(=O)O)CC1CCc2cc(C(F)(F)F)ccc2C1c1ccc(F)cc1 (racemic) (as salt: salt) [(+/−)-8, Lithium cis-N-methyl-N-[1-(4-fluorophenyl)-6-trifluoromethyl-1,2,3,4-tetrahydronaphthalen-2-ylmethyl] aminomethylcarboxylate] | 137 to 142 °C
CN(CC(=O)O)CC1CCc2cc(Oc3ccccc3)ccc2C1c1ccccc1 (racemic) (as salt: salt) [(+/−)-17, Lithium cis-N-methyl-N-(6-phenoxy-1-phenyl-1,2,3,4-tetrahydronaphthalen-2-ylmethyl) aminomethylcarboxylate] | 191 to 200 °C
Cc1ccc2c(c1)CCC(CN(C)CC(=O)O)C2c1ccccc1 (racemic) (as salt: salt) [(+/−)-23, Lithium cis-N-methyl-N-(6-methyl-1-phenyl-1,2,3,4-tetrahydronaphthalen-2-ylmethyl) aminomethylcarboxylate] | 135 to 138 °C
CN(CC(=O)O)C[C@H]1CCc2cc(OCC(C)(C)C)ccc2[C@H]1c1ccccc1.Cl (racemic) [(+/−)-34, cis-N-Methyl-N-[6-(2,2-dimethylpropyloxy)-1-phenyl-1,2,3,4-tetrahydronaphthalen-2-ylmethyl] aminomethylcarboxylic acid hydrochloride] | 151 to 155 °C
COc1ccc2c(c1)CC[C@H](CN(C)CC(=O)O)[C@@H]2c1cccc(C)c1.O=C(O)C(F)(F)F (relative stereo) | 96 to 106 °C
CN(CC(=O)O)C[C@H]1CCc2ccccc2[C@H]1c1ccccc1.Cl (relative stereo) | 205 to 211 °C (dec.)
CN(CC(=O)O)C[C@H]1CCc2cc(-c3ccccc3)ccc2[C@H]1c1ccccc1.Cl (relative stereo) | 210 to 221 °C
CN(CC(=O)O)C[C@H]1CCc2cc(C#N)ccc2[C@H]1c1ccccc1.Cl (relative stereo) | 197 °C (dec.)
COC(=O)c1ccc2c(c1)CC[C@H](CN(C)CC(=O)O)[C@@H]2c1ccccc1.Cl (relative stereo) | 166 to 171 °C
CN(CC(=O)O)C[C@H]1CCc2cc(OC3CCCCC3)ccc2[C@H]1c1ccccc1.Cl (relative stereo) | > 210 °C (dec.)
CN(CC(=O)O)C[C@H]1CCc2cc(OCc3ccccc3)ccc2[C@H]1c1ccccc1.Cl (relative stereo) | 200 to 210 °C
CN(CC(=O)O)C[C@H]1CCc2cc(OCC3CC3)ccc2[C@H]1c1ccccc1.Cl (relative stereo) | 173 to 177 °C
CN(CC(=O)O)CC1CCc2cc(C(F)(F)F)ccc2C1c1ccc(F)cc1 (single isomer, unassigned; (-)) (as salt: salt) [Example (−)-8, (−)-Lithium N-methyl-N-[1-(4-fluorophenyl)-6-trifluoromethyl-1,2,3,4-tetrahydronaphthalen-2-ylmethyl] aminomethylcarboxylate] | 161 to 164 °C
CN(CC(=O)O)CC1CCc2cc(OCC(C)(C)C)ccc2C1c1ccccc1 (single isomer, unassigned; (-)) (as salt: salt) [Example (−)-34, (−)-Lithium cis-N-methyl-N-[1-phenyl-6-(2,2-dimethylpropyloxy)-1,2,3,4-tetrahydronaphthalen-2-ylmethyl] aminomethylcarboxylate] | 168 to 170 °C
